Measurements from ChEMBL document CHEMBL1145274, “The evaluation of 2,8-disubstituted benzoxazinone derivatives as anti-inflammatory and anti-platelet aggregation agents” (Bioorg Med Chem Lett, 2005).

Assays:
Assay type in all cases: functional, organism-based
[1] = organism: Homo sapiens; test: Inhibitory concentration for anti-platelet aggregation induced by collagen at 10 ug/mL concentration
[2] = organism: Homo sapiens; test: Inhibitory concentration for anti-platelet aggregation induced by thrombin at 0.1 U/mL concentration
[3] = organism: Homo sapiens; test: Inhibitory concentration for anti-platelet aggregation induced by arachidonic acid at 100 uM concentration
[4] = organism: Homo sapiens; test: Inhibitory concentration for anti-platelet aggregation induced by platelet activating factor at 2 ng/mL concentration
[5] = organism: Homo sapiens; test: Inhibitory concentration against superoxide anion (O2-) generation in human neutrophils induced by FMLP (formyl-Met-Leu-Phe) and […](phorbol myristate acetate)
[6] = organism: Homo sapiens; test: Inhibitory concentration against neutrophil elastase release induced by FMLP (formyl-Met-Leu-Phe)

SMILES	IC50 [1] [µM]	IC50 [2] [µM]	IC50 [3] [µM]	IC50 [4] [µM]	IC50 [5] [µM]	IC50 [6] [µM]
COc1cccc2c(=O)oc(-c3ccc(Br)cc3)nc12	> 100	> 100	> 100	> 100	> 40	
COc1cccc2c(=O)oc(-c3ccccc3F)nc12	39.4	7.2	8	> 100	9.74	
COc1ccccc1-c1nc2c(OC)cccc2c(=O)o1	> 100	> 100	> 100	> 100	14	1.59
COc1ccccc1-c1nc2c(C)cccc2c(=O)o1	54.7	> 100	36.6	> 100	22.7	7.23
O=c1oc(-c2ccccc2F)nc2c(Cl)cccc12	49.1	14.7	12.7	87.4	> 40	6.03
COc1ccccc1-c1nc2c(Cl)cccc2c(=O)o1	44.9	14.8	25.4	70.3	10	1.91
O=c1oc(-c2ccccc2Br)nc2c(Cl)cccc12	47	7.1	10.2	87.5	6.56	1.69
Cc1ccccc1-c1nc2c(C)cccc2c(=O)o1	> 100	> 100	19.3	> 100	23.6	> 40
Cc1cccc2c(=O)oc(-c3ccccc3Br)nc12	49.8	18.9	5.8	89.3	30.2	> 40
CCc1nc2c(OC)cccc2c(=O)o1	> 100	> 40	> 100	> 40	100	100
COc1cccc2c(=O)oc(C)nc12	> 100	> 100	> 100	> 100	> 40	> 40
Cc1ccccc1-c1nc2c(Cl)cccc2c(=O)o1	63.3	36.3	13.8	91.9	17.5	> 40
COc1cccc2c(=O)oc(-c3ccc(Cl)cc3)nc12	> 100	> 100	> 100	> 100	> 40	
CCCCc1nc2c(OC)cccc2c(=O)o1	> 100	> 100	> 100	> 100	> 40	> 40
c1ccc2c(c1)[I+]c1ccccc1-2 [DIPHENYLENEIODONIUM]					0.46	

Continued by falling IC50 [1], values first:

IC50 [1] [µM]	IC50 [2] [µM]	IC50 [3] [µM]	IC50 [4] [µM]	IC50 [5] [µM]	IC50 [6] [µM]	SMILES
35.5	6.9	11.8	> 100	14.7		COc1cccc2c(=O)oc(-c3ccccc3Cl)nc12
34.9	> 100	34.6	> 100			CC(=O)Oc1ccccc1C(=O)O [ASPIRIN]
34.3	67	8.4	> 100	11.4	10.6	COc1cccc2c(=O)oc(-c3ccccc3C)nc12
33.8	48.2	47.3	> 100	> 40	> 40	COc1cccc2c(=O)oc(-c3ccccc3)nc12
30	6.6	6.1	69.5	8.66	1.89	O=c1oc(-c2ccccc2Cl)nc2c(Cl)cccc12
21.1	4.4	13	> 100	16.7		COc1cccc2c(=O)oc(-c3ccccc3Br)nc12
12.6	11.9	4.3	> 100	29.9	> 40	Cc1cccc2c(=O)oc(-c3ccccc3Cl)nc12
11.9	34.3	6.8	> 100	10.8	> 40	Cc1cccc2c(=O)oc(-c3ccccc3F)nc12
